“Also recorded” adds a separate entry of the source.
Experiments:
[1] = tested on: wheat seeds (spring wheat); experiment: Wheat seed germination and root length in petriplates (Example 8); type: in vivo; conditions: 5 days after plating; FIG. 20
Method: (§1) Corn and wheat seeds were plated in petriplates containing 5 ml of treatment solution on a filter paper. Corn seeds were placed on moist filter paper for germination. Similarly, wheat seeds (spring wheat) were placed in petriplates. […] Roots were harvested and their length measured by WinRhizo system.

canola seeds = experiment: Canola seed germination in petriplates; type: in vivo; conditions: 10^−9 M
Method: In petriplates on moist filter paper moistened with 10^−9 M treatment solution, canola and wheat seeds were plated for germination. At 18 h after plating, Pea CO induced more canola and wheat seed germination as compared to Pea LCO. Over the period of 21 to 24 hours, seed germination rate for LCO and CO leveled up.

Corn seeds [2] = experiment: Corn seed germination and root length in petriplates; type: in vivo; conditions: 5 days after plating
Method: as §1

[3] = tested on: Hybrid corn seeds (92L90); experiment: Corn seed treatment (greenhouse, two trials); type: in vivo; conditions: 3 fl oz/100 lbs of seed; for dry weight increase over LCO: 10^-8 M
Method: Two seed treatment experiments using only Pea LCO, Pea CO and the CO mixtures obtained from chitosan by enzymatic process (structurally distinct from the Pea CO, and also referred to in the examples as the “China CO”) were performed in greenhouse. Hybrid corn seeds (92L90, Peterson Farm, USA) were treated with treatment solution (10^-8 M) at the rate of 3 fl oz/100 lbs of seed. Seeds were planted in plastic pots containing 1:1 Sand:Perlite mixture. Seeds were allowed to grow for about 3-4 weeks and then they were harvested and their dry weight measured.

[4] = tested on: Siratro (Macroptelium atropurpureum) root segments; experiment: Root hair deformation bioassay, Siratro; conditions: 4 hours in the dark, FIG. 14
Method: (§2) Siratro (Macroptelium atropurpureum) seeds were germinated on moist filter paper in petriplates. When seedlings roots are about 1-inches long, they are severed from the seedlings and treated with 2 ml of 10^−8M treatment solutions in test tubes for 4 hours in the dark. After treatment time is over the solutions are dyed with Congo Red for 10 minutes. After that root segments are observed under a compound microscope to count the number of deformed root hairs in the most sensitive zone of the root segment. Root hair deformation bioassay was also performed using Red Clover in a similar fashion like Siratro above and only visual observation was made and recorded in text form.

corn = experiment: Corn field trials, seed application, grain yield; type: in vivo
Red Clover root hairs = experiment: Root hair deformation bioassay, Red Clover; conditions: compared to LCO
Method: as §2

Red Clover seeds = experiment: Seed germination in multiple crops: Red Clover; type: in vivo; conditions: 24 h, dark, 22° C., FIG. 23
Method: Similar to the seed germination experiment mentioned above, seeds of different crops were placed on moist filter paper in petriplates containing 5 ml liquid in each. Petriplates with seeds were then kept in the dark at 22° C.

Corn seeds [5] = experiment: Corn seed application (greenhouse); type: in vivo; conditions: seed treatment; CO 10^−8 M, LCO 10^−8 M alone or LCO 10^−9 with CO 10^−8; harvested 10 days after planting; FIG. 28
Method: Corn seeds were treated with various combinations of Pea CO (10^−8 M) and Pea LCO (10^−8, 10^−9 M). Seeds were planted in greenhouse plastic pots containing 1:1 sand:perlite mixture. Seedlings were harvested 10 days after planting, washed clean and then dried in an oven at 60 C for 48 hr.

soybean = experiment: Soybean field trials, foliar application, grain yield; type: in vivo

## CC(=O)NC1C(O)OC(CO)C(OC2OC(CO)C(OC3OC(CO)C(OC4OC(CO)C(OC5OC(CO)C(O)C(O)C5N)C(O)C4NC(C)=O)C(O)C3NC(C)=O)C(O)C2NC(C)=O)C1O (stereo not shown) [Pea CO]
[1]
  increase in root length in wheat: not statistically significant but consistently greater
  wheat root length, CO compared to LCO: outperformed LCO
Canola seeds; FIG. 15
  seed germination at 18 h as compared to Pea LCO: more
Canola seeds; LCO versus CO
  seed germination rate over 21 to 24 hours: leveled up
Corn seeds [2]; FIG. 18
  corn seed germination: increased germination
Corn seeds [2]; WinRhizo, FIG. 19
  corn seedling root length over control: significantly increased
[3]; first trial, FIG. 10
  dry weight increase over LCO: 11.84%
[3]; second trial, FIG. 11
  dry weight increase over LCO: 12.63%
[3]; treatment solution 10^-8 M, 3-4 weeks, both experiments
  shoot, root and total biomass increase over LCO: greater
[4]; 10^−8M treatment solutions
  root hair deformation: induced root hair deformation
[4]; 10^−8M
  root hair deformation compared to LCO or CO: equal to LCO
corn
  YIELD, Response Increase: 3.6 % of Control
corn; 1×10^−8 molar, 1 μg/acre, 3 fl oz per 50 pounds of seed
  YIELD, Mean (N = 10): 188.0 bu/A
corn; amongst the ten trials
  less positive yield responses than LCO: 10.0%
corn; less
  CO mean yield less than LCO: 4.6 bu/A
  less yield increase above the Control than LCO: 2.5%
corn; over Control
  YIELD, Response: 6.5 bu/A
corn; percent of the ten trials
  Positive Yield Response: 80.0%
Red Clover root hairs
  root hair deformation pattern (visual observation): much better and prominent; also recorded: best root hair deformer
Red Clover seeds
  seed germination: better germination
Corn seeds [5]
  corn seedling dry weight: increased corn seedling dry weight
soybean; soybean foliar at V4 to V5, 8×10^−8 molar, 12 μg/acre, with glyphosate
  YIELD, Mean (N = 19): 58.2 bu/A
soybean; soybean foliar, 12 μg/acre
  YIELD, Response Increase: 3 % of Control
soybean; soybean foliar, 12 μg/acre, listed as CO (CO-V)
  YIELD, Response Increase: 3% of Control
soybean; soybean foliar, 12 μg/acre, over Control
  YIELD, Response: 1.7 bu/A
soybean; soybean foliar, CO minus LCO, less
  CO mean yield less than foliar LCO: 0.1 bu/A
soybean; soybean foliar, CO versus LCO
  yield enhancement as a foliar treatment (conclusion): substantially equal yield enhancements
soybean; soybean foliar, percent of the 19 trials
  Positive Yield Response: 68.4%

— patent US12185720B2, “Chitooligosaccharides and methods for use in enhancing plant growth” (NOVOZYMES BIOAG A/S, priority 2011, dated 2025)
